The results in this text go back to EP2768830B1, “APOPTOSIS-INDUCING AGENTS FOR THE TREATMENT OF CANCER AND IMMUNE AND AUTOIMMUNE DISEASES” (AbbVie Inc., priority 2011, dated 2013).

Where two headings read alike, the source gives them in different places.

The test system of assay [1] is mouse FL5.12 cells transfected with Bcl-XL. Put plainly: FL5.12 cellular assay (cell viability, CellTiter-Glo).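 Note: each EC50 determination derived from duplicate measurements.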 Format: cell-based. Conditions: FL5.12 cells transfected with Bcl-XL, IL-3-depleted, 3% FBS assay media, 24 hours, CellTiter-Glo, read-out: FL5.12 Bcl-xL, - IL3, EC 50. For orientation: ATP-based viability assays read luminescence as a measure of living cells.

Assay [2] concerns the target GST-Bcl-xL (Homo sapiens, UniProt Q07817). The following applies: read-out: TR-FRET binding Bcl-xL Ki. For orientation: Time-resolved FRET reads energy transfer from a long-lived donor to a nearby acceptor.

The Ki is the equilibrium dissociation constant of an inhibitor or competing ligand from its target.

Sequence of GST-Bcl-xL (Q07817 whole entry): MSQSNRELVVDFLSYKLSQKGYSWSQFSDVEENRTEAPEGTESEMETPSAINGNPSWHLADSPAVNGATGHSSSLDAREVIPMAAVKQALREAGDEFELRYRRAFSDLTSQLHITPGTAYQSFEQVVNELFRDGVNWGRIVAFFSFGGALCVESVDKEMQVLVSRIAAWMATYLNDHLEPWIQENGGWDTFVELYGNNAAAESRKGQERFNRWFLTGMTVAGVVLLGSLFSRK

Take `O=C(Nc1nc2ccccc2s1)c1cccc2c1CN(c1ccc(-c3cnn(Cc4ccc5ccccc5c4)c3)c(C(=O)O)n1)CC2` [Example 28, 6-[8-(1,3-benzothiazol-2-ylcarbamoyl)-3,4-dihydroisoquinolin-2(1H)-yl]-3-[1-(naphthalen-2-ylmethyl)-1H-pyrazol-4-yl]pyridine-2-carboxylic acid]: in assay [1] (Mus musculus), the EC50 is over 1000 nM. The inhibitory constant (Ki) in assay [2] came out at 33 nM.
For `O=C(Nc1nc2ccccc2s1)c1cccc2c1CN(c1ccc(-c3ccn(S(=O)(=O)c4ccccc4)c3)c(C(=O)O)n1)CC2` [Example 128, 6-[8-(1,3-benzothiazol-2-ylcarbamoyl)-3,4-dihydroisoquinolin-2(1H)-yl]-3-[1-(phenylsulfonyl)-1H-pyrrol-3-yl]pyridine-2-carboxylic acid], the EC50 in assay [1] (Mus musculus) was over 1000 nM. Further, the Ki in assay [2] worked out at 7 nM.
The like results for `Cc1c(-c2ccc(N3CCc4cccc(C(=O)Nc5nc6ccccc6s5)c4C3)nc2C(=O)O)cc(C#N)n1Cc1ccccc1` [Example 129, 6-[8-(1,3-benzothiazol-2-ylcarbamoyl)-3,4-dihydroisoquinolin-2(1H)-yl]-3-(1-benzyl-5-cyano-2-methyl-1H-pyrrol-3-yl)pyridine-2-carboxylic acid] were, in that order, 18 nM and under 0.1 nM.
Taken in the same sequence, the figures for `COCCOc1ccccc1Cn1ncc(-c2ccc(N3CCc4cccc(C(=O)Nc5nc6ccccc6s5)c4C3)nc2C(=O)O)c1C` [Example 89, 6-[8-(1,3-benzothiazol-2-ylcarbamoyl)-3,4-dihydroisoquinolin-2(1H)-yl]-3-{1-[2-(2-methoxyethoxy)benzyl]-5-methyl-1H-pyrazol-4-yl}pyridine-2-carboxylic acid] were 23 nM and 0.5 nM.
As to `Cc1c(-c2ccc(N3CCc4cccc(C(=O)Nc5nc6ccccc6s5)c4C3)nc2C(=O)O)cnn1CC1(C)CCCCC1` [Example 82, 6-[8-(1,3-benzothiazol-2-ylcarbamoyl)-3,4-dihydroisoquinolin-2(1H)-yl]-3-{5-methyl-1-[(1-methylcyclohexyl)methyl]-1H-pyrazol-4-yl}pyridine-2-carboxylic acid], the EC50 in assay [1] (Mus musculus) is 8 nM. Moreover, the Ki in assay [2] stood at 0.5 nM.
As for `CN(C)c1ccccc1Cn1cc(-c2ccc(N3CCc4cccc(C(=O)Nc5nc6ccccc6s5)c4C3)nc2C(=O)O)cn1` [Example 80, 6-[8-(1,3-benzothiazol-2-ylcarbamoyl)-3,4-dihydroisoquinolin-2(1H)-yl]-3-{1-[2-(dimethylamino)benzyl]-1H-pyrazol-4-yl}pyridine-2-carboxylic acid], the EC50 in assay [1] (Mus musculus) stood at 253 nM. In addition, the Ki in assay [2] stood at 4 nM.
Turning to `Cc1c(-c2ccc(N3CCc4cccc(C(=O)Nc5nc6ccccc6s5)c4C3)nc2C(=O)O)cc(C#N)n1CC1(N2CCOCC2)CCCCC1` [Example 168, 6-[8-(1,3-benzothiazol-2-ylcarbamoyl)-3,4-dihydroisoquinolin-2(1H)-yl]-3-(5-cyano-2-methyl-1-{[1-(morpholin-4-yl)cyclohexyl]methyl}-1H-pyrrol-3-yl)pyridine-2-carboxylic acid], the EC50 in assay [1] (Mus musculus) was determined as 14 nM. For the same compound, in assay [2], the Ki is under 0.1 nM.
The like results for `CN(C)c1cccc(Cn2cc(-c3ccc(N4CCc5cccc(C(=O)Nc6nc7ccccc7s6)c5C4)nc3C(=O)O)cn2)c1` [Example 34, 6-[8-(1,3-benzothiazol-2-ylcarbamoyl)-3,4-dihydroisoquinolin-2(1H)-yl]-3-{1-[3-(dimethylamino)benzyl]-1H-pyrazol-4-yl}pyridine-2-carboxylic acid] were, in that order, 907 nM and 23 nM.
Consider `COC1(Cn2nnc(-c3ccc(N4CCc5cccc(C(=O)Nc6nc7ccccc7s6)c5C4)nc3C(=O)O)c2C)CCCC(C)(C)C1` (centres unmarked) [Example 166, 6-[8-(1,3-benzothiazol-2-ylcarbamoyl)-3,4-dihydroisoquinolin-2(1H)-yl]-3-{1-[(1-methoxy-3,3-dimethylcyclohexyl)methyl]-5-methyl-1H-1,2,3-triazol-4-yl}pyridine-2-carboxylic acid], for which the EC50 in assay [1] (Mus musculus) was found to be 30 nM. The Ki in assay [2] is under 0.1 nM.
On to `CC(C)(C)OC(=O)N1CCC(Cn2cc(-c3ccc(N4CCc5cccc(C(=O)Nc6nc7ccccc7s6)c5C4)nc3C(=O)O)cn2)CC1` [Example 78, 6-[8-(1,3-benzothiazol-2-ylcarbamoyl)-3,4-dihydroisoquinolin-2(1H)-yl]-3-(1-{[1-(tert-butoxycarbonyl)piperidin-4-yl]methyl}-1H-pyrazol-4-yl)pyridine-2-carboxylic acid], for which the EC50 in assay [1] (Mus musculus) is over 1000 nM. In addition, the Ki in assay [2] came out at 379 nM.
With `Cc1c(-c2ccc(N3CCc4cccc(C(=O)Nc5nc6ccccc6s5)c4C3)nc2C(=O)O)cnn1Cc1ccccc1OCC1CCOCC1` [Example 99, 6-[8-(1,3-benzothiazol-2-ylcarbamoyl)-3,4-dihydroisoquinolin-2(1H)-yl]-3-{5-methyl-1-[2-(tetrahydro-2H-pyran-4-ylmethoxy)benzyl]-1H-pyrazol-4-yl}pyridine-2-carboxylic acid], in assay [1] (Mus musculus), the EC50 came to 60 nM.
In the case of `O=C(Nc1nc2ccccc2s1)c1cccc2c1CN(c1ccc(-c3cnn(CC4CCCCO4)c3)c(C(=O)O)n1)CC2` (centres unmarked) [Example 149, 6-[8-(1,3-benzothiazol-2-ylcarbamoyl)-3,4-dihydroisoquinolin-2(1H)-yl]-3-[1-(tetrahydro-2H-pyran-2-ylmethyl)-1H-pyrazol-4-yl]pyridine-2-carboxylic acid], in assay [1] (Mus musculus), the EC50 was 986 nM.
For `O=C(Nc1nc2ccccc2s1)c1cccc2c1CN(c1ccc(-c3ccn(Cc4ccccc4)c3)c(C(=O)O)n1)CC2` [Example 125, 6-[8-(1,3-benzothiazol-2-ylcarbamoyl)-3,4-dihydroisoquinolin-2(1H)-yl]-3-(1-benzyl-1H-pyrrol-3-yl)pyridine-2-carboxylic acid], the EC50 in assay [1] is 527 nM.
The same measure, in the same setting: to `Cc1c(CC2CCCCC2)cccc1-c1ccc(N2CCc3cccc(C(=O)Nc4nc5ccccc5s4)c3C2)nc1C(=O)O` [Example 107, 6-[8-(1,3-benzothiazol-2-ylcarbamoyl)-3,4-dihydroisoquinolin-2(1H)-yl]-3-[3-(cyclohexylmethyl)-2-methylphenyl]pyridine-2-carboxylic acid] belongs 10 nM; to “6-[8-(1,3-benzothiazol-2-ylcarbamoyl)-3,4-dihydroisoquinolin-2(1H)-yl]-3-(5-methyl-1-{[6-(pyrrolidin-1-yl)pyridin-2-yl]methyl}-1H-pyrazol-4-yl)pyridine-2-carboxylic acid and 6-(8-(1,3-benzothiazol-2-ylcarbamoyl)-3,4-dihydroisoquinolin-2(1H)-yl)-3-(3-methyl-1-((6-(pyrrolidin-1-yl)pyridin-2-yl)methyl)-1H-pyrazol-4-yl)pyridine-2-carboxylic acid [Example 32]”, 216 nM.
On to `Cc1c(-c2ccc(N3CCc4cccc(C(=O)Nc5nc6ccccc6s5)c4C3)nc2C(=O)O)cnn1CC1CCCCC1` [Example 43, 6-[8-(1,3-benzothiazol-2-ylcarbamoyl)-3,4-dihydroisoquinolin-2(1H)-yl]-3-[1-(cyclohexylmethyl)-5-methyl-1H-pyrazol-4-yl]pyridine-2-carboxylic acid], for which, in assay [1] (Mus musculus), the EC50 turned out to be 4 nM.
The same measure, in the same setting: to `Cc1c(Oc2ccccc2)cccc1-c1ccc(N2CCc3cccc(C(=O)Nc4nc5ccccc5s4)c3C2)nc1C(=O)O` [Example 110, 6-[8-(1,3-benzothiazol-2-ylcarbamoyl)-3,4-dihydroisoquinolin-2(1H)-yl]-3-(2-methyl-3-phenoxyphenyl)pyridine-2-carboxylic acid] belongs 90 nM; to `CN(c1cccc(-c2ccc(N3CCc4cccc(C(=O)Nc5nc6ccccc6s5)c4C3)nc2C(=O)O)c1C#N)S(=O)(=O)C1CCCCC1` [Example 181, 6-[8-(1,3-benzothiazol-2-ylcarbamoyl)-3,4-dihydroisoquinolin-2(1H)-yl]-3-{2-cyano-3-[(cyclohexylsulfonyl)(methyl)amino]phenyl}pyridine-2-carboxylic acid], 241 nM; to `Cc1c(-c2ccc(N3CCc4cccc(C(=O)Nc5nc6ccccc6s5)c4C3)nc2C(=O)O)cnn1C[C@@H]1CC[C@@H]2C[C@H]1C2(C)C` [Example 85, 6-[8-(1,3-benzothiazol-2-ylcarbamoyl)-3,4-dihydroisoquinolin-2(1H)-yl]-3-(1-{[(1R,2R,5R)-6,6-dimethylbicyclo[3.1.1]hept-2-yl]methyl}-5-methyl-1H-pyrazol-4-yl)pyridine-2-carboxylic acid], under 1 nM.
On the same count and under the same terms, to `Cc1c(-c2ccc(N3CCc4cccc(C(=O)Nc5nc6ccccc6s5)c4C3)nc2C(=O)O)cccc1N(C)C1CCCC(C)(C)C1` (centres unmarked) [Example 159, 6-[8-(1,3-benzothiazol-2-ylcarbamoyl)-3,4-dihydroisoquinolin-2(1H)-yl]-3-{3-[(3,3-dimethylcyclohexyl)(methyl)amino]-2-methylphenyl}pyridine-2-carboxylic acid] belongs 31 nM; to `CN(c1nccc(-c2ccc(N3CCc4cccc(C(=O)Nc5nc6ccccc6s5)c4C3)nc2C(=O)O)c1C#N)C1CCCCC1` [Example 164, 6-[8-(1,3-benzothiazol-2-ylcarbamoyl)-3,4-dihydroisoquinolin-2(1H)-yl]-3'-cyano-2'-[cyclohexyl(methyl)amino]-3,4'-bipyridine-2-carboxylic acid], 308 nM; to `Cc1c(-c2ccc(N3CCc4cccc(C(=O)Nc5nc6ccccc6s5)c4C3)nc2C(=O)O)cccc1N(C)c1ccccc1` [Example 156, 6-[8-(1,3-benzothiazol-2-ylcarbamoyl)-3,4-dihydroisoquinolin-2(1H)-yl]-3-{2-methyl-3-[methyl(phenyl)amino]phenyl}pyridine-2-carboxylic acid], 15 nM.
